Source: patent publication US9108959B2, “Process for the preparation of an orexin receptor antagonist” (Merck Sharp & Dohme Corp., priority 2011, dated 2015)

Experiment: relative thermodynamic stability of crystalline forms (slurry of equal amounts of the two forms in EtOH at various temperatures)
Type: physicochemical
Details: for temperatures at which the form is the thermodynamically most stable crystalline form: enantiotropically related forms
Method: Anhydrous form I and Anhydrous form II are enatiotropically related. […] The transition temperature between anhydrous form I and anhydrous form II was determined by slurring a mixture containing equal amounts of the two forms in EtOH at various temperatures. The transition temperature between anhydrous form I and anhydrous form II is between 35 and 40° C. […] Anhydrous Form II can be synthesized using a crystallization process that is more efficient and results in improved particle size and morphology control relative to anhydrous form I. Anhydrous form II has better crystallinity, better filtration properties and gives better purity rejection than anhydrous form I. Anhydrous form II has better processability for preparing formulations than Anhydrous form I.

Structure (SMILES): Cc1ccc(-n2nccn2)c(C(=O)N2CCN(c3nc4cc(Cl)ccc4o3)CC[C@H]2C)c1 [Anhydrous form I, [(7R)-4-(5-chloro-1,3-benzoxazol-2-yl)-7-methyl-1,4-diazepan-1-yl][5-methyl-2-(2H-1,2,3-triazol-2-yl)phenyl]methanone]
- stability of crystalline phase (at 25° C.): most stable crystalline phase
- temperatures at which the form is the thermodynamically most stable crystalline form: ≤ 35 °C

Structure (SMILES): Cc1ccc(-n2nccn2)c(C(=O)N2CCN(c3nc4cc(Cl)ccc4o3)CC[C@H]2C)c1 [Anhydrous form II, [(7R)-4-(5-chloro-1,3-benzoxazol-2-yl)-7-methyl-1,4-diazepan-1-yl][5-methyl-2-(2H-1,2,3-triazol-2-yl)phenyl]methanone]
- temperatures at which the form is the thermodynamically most stable crystalline form: ≥ 40 °C
